Reference: patent US3996361A, “N^6 -Substituted-9-[3-(4-phenyl-piperazino)-propyl]-adenines” (Boehringer Mannheim G.m.b.H., priority 1974, dated 1976)

Tested on: PCA reaction induced by reaginic (IgE-like) antibodies to egg albumin
Experiment: inhibition of the passive cutaneous anaphylactic (PCA) reaction in rats induced by reaginic antibodies to egg albumin
Format: in vivo, rat
Protocol: Diethylcarbamazin, i.e. 1-diethylcarbamoyl-4-methylpiperazine, was used as a comparison compound. Specifically, tests were run as follows:
Serum containing reaginic (IgE-like) antibody to egg albumin was prepared by injecting rats intramuscularly with 0.1 ml of a solution of the antigen (10 mg/ml) in saline together with 0.5 ml of Bordetella pertussis vaccine (Behring; 2 × 10^10 organisms/ml). 9-14 Days later the animals were bled from the abdominal aorta; the serum was pooled and stored at -20° C until required. The titer of the serum, i.e. the highest dilution inducing passive cutaneous anaphylaxis (PCA) in the rat following a 48-hour latent period, was between 1:8 and 1:32. For use in these experiments the serum was diluted 1:24.
The animals were anesthetized with 2,2-dichloro-1,1-difluoroethyl-methyl ether, sold under the trademark Penthrane, and were sensitized by injecting 0.1 ml of the antiserum into the shaved abdominal flanks. After 48 hours for reaginic PCA, the animals were given an intravenous injection of 1 ml of saline solution containing 0.5% by weight of egg albumin and 0.25% by weight of Evans blue.
After having killed and exsanguinated the animals, the size in square millimeters and the intensity, in arbitary scores, of the resulting blue spot were determined. The product of these two parameters was used to determine the degree of the reaction and the degree of reaction with no active material was taken as the standard against which to measure % inhibition of the anaphylactic reaction.
6 Animals were used per dose level and for control.
In some instances the test material was injected intravenously (i.v.) immediately before the antigen, using a solution in water containing 0.5% HCl and 2% of dimethylformamide, and in other instances intraperitoneally (i.p.) 20 minutes before the antigen, using a suspension in water containing 1% of methylcellulose. The volume of the injection was varied to give the indicated dosage of active material.

[1] = 3 mg/kg i.p. 20 min. before antigen (ovalbumin 5 mg/animal i.v.)
[2] = 3 mg/kg i.v. immediately before antigen (ovalbumin 5 mg/animal i.v.)

With `CCN(CC)C(=O)N1CCN(C)CC1` [Diethylcarbamazin, 1-diethylcarbamoyl-4-methylpiperazine, reference compound] the “% Inhibition of PCA, i.p.” value (60 mg/kg i.p. 20 min. before antigen (ovalbumin 5 mg/animal i.v.)) was 19% and the “% Inhibition of PCA, i.v.” value (60 mg/kg i.v. immediately before antigen (ovalbumin 5 mg/animal i.v.)) was 58%.

`CCCCNc1ncnc2c1ncn2CCCN1CCN(c2ccccc2)CC1` [Ex. 1 (ab), N^6-n-butyl-9-[3-(4-phenyl-piperazino)-propyl]-adenine] was tested, and the “% Inhibition of PCA, i.p.” value [1] was 69%.

In the case of `CCNc1ncnc2c1ncn2CCCN1CCN(c2ccccc2)CC1` [Ex. 1 (d), N^6-ethyl-9-[3-(4-phenyl-piperazino)-propyl]-adenine], the “% Inhibition of PCA, i.p.” value [1] is reported as 41% and the “% Inhibition of PCA, i.v.” value [2] is reported as 91%.

`CNc1ncnc2c1ncn2CCCN1CCN(c2ccc(F)cc2)CC1` [Ex. 1 (q), N^6-methyl-9-{3-[4-(4-fluorophenyl)-piperazino]-propyl}-adenine] was tested, and the “% Inhibition of PCA, i.p.” value [1] was 57%.

In the case of `CNc1ncnc2c1ncn2CCCN1CCN(c2ccc(C)cc2)CC1` [Ex. 1 (y), N^6-methyl-9-{3-[4-(4-methylphenyl)-piperazino]-propyl}-adenine], the “% Inhibition of PCA, i.p.” value [1] is reported as 33% and the “% Inhibition of PCA, i.v.” value [2] is reported as 61%.

In the case of `CCCNc1ncnc2c1ncn2CCCN1CCN(c2ccccc2)CC1` [Ex. 2, N^6-n-Propyl-9-[3-(4-phenyl-piperazino)-propyl]-adenine], the “% Inhibition of PCA, i.p.” value [1] is reported as 59% and the “% Inhibition of PCA, i.v.” value [2] is reported as 83%.
